Where a name gives a salt, the structure may show the parent alone.
What was measured:
[1] = system: A. baumannii NCTC 13302 producing CHDL oxacillinase [OXA-25] beta-lactamase enzymes; test: Time kill study against A. baumannii NCTC 13302; type: cell-based, Acinetobacter baumannii; settings: sulbactam 8 mcg/ml, sodium salt of Formula (I) 4 mcg/ml, imipenem 16 mcg/ml; for Bacterial count, 0 hour: 0 hour (initial inoculum); for Bacterial count, 0 hour / Bacterial count, 2 hour / Bacterial count, 4 hour / Bacterial count, 6 hour / Bacterial count, 8 hour: alone or combined as labelled; for Effect on bacterial count (in words): throughout the duration of the study
Procedure: (§1) In a typical time kill study, the freshly grown cultures were diluted to the required cell density (initial starting inoculum) in Cation adjusted Muller Hinton broth medium (BD, USA). The antibacterial agents (either alone or in combination) at the required concentrations were added into the culture-containing medium. The samples were incubated under shaking condition (120 rpm) at 37° C. Enumeration of viable bacterial count was done every 2 hour by diluting in normal saline and plating on to the Tryptic Soya Agar plates (BD, USA). The plates were incubated for 24 hours to arrive at the viable bacterial count. […] In general, the decrease of 1 Log CFU/ml, corresponds to 90% killing of bacteria. Similarly, 2 Log CFU/ml reductions indicates to 99% killing of bacteria and 3 Log CFU/ml reductions is equal to 99.9% killing of bacteria.
(§2) The assay without any antibacterial agent was taken as control. The sodium salt of a compound of Formula (I), was used for antibacterial testing.

[2] = system: A. baumannii NCTC 13303 producing CHDL oxacillinase [OXA-26] beta-lactamase enzymes; test: Time kill study against A. baumannii NCTC 13303; type: cell-based, Acinetobacter baumannii; settings: sulbactam 8 mcg/ml, sodium salt of Formula (I) 4 mcg/ml, imipenem 8 mcg/ml; for Bacterial count, 0 hour: 0 hour (initial inoculum); for Bacterial count, 0 hour / Bacterial count, 2 hour / Bacterial count, 4 hour / Bacterial count, 6 hour / Bacterial count, 8 hour: alone or combined as labelled; for Effect on bacterial count (in words): throughout the duration of the study
Procedure: as §1, §2

SMILES: C[C@@H](O)[C@H]1C(=O)N2C(C(=O)O)=C(SCCN=CN)C[C@H]12 [Imipenem, imipenem]
- Bacterial count, 0 hour [1]: 6.36 Log CFU/ml
- Bacterial count, 2 hour [1]: 7.74 Log CFU/ml
- Bacterial count, 4 hour [1]: 8 Log CFU/ml
- Bacterial count, 6 hour [1]: 8.32 Log CFU/ml
- Bacterial count, 8 hour [1]: 8.74 Log CFU/ml
- Bacterial count, 0 hour [2]: 6.17 Log10CFU/ml
- Bacterial count, 2 hour [2]: 7.84 Log10CFU/ml
- Bacterial count, 4 hour [2]: 8.13 Log10CFU/ml
- Bacterial count, 6 hour [2]: 8.26 Log10CFU/ml
- Bacterial count, 8 hour [2]: 8.23 Log10CFU/ml

SMILES: N#C[C@@H]1CC[C@@H]2CN1C(=O)N2OS(=O)(=O)O [Sodium salt of a compound of Formula (I), sulphuric acid, mono[(1R,2S,5R)-2-cyano-7-oxo-1,6-diazabicyclo[3.2.1]oct-6-yl] ester, sodium salt (1:1)]
- Bacterial count, 0 hour [1]: 6.36 Log CFU/ml
- Bacterial count, 2 hour [1]: 7.8 Log CFU/ml
- Bacterial count, 4 hour [1]: 8.0 Log CFU/ml
- Bacterial count, 6 hour [1]: 8.1 Log CFU/ml
- Bacterial count, 8 hour [1]: 8.15 Log CFU/ml
- Effect on bacterial count (in words) [1]: not effective to decrease the bacterial count
- Bacterial count, 0 hour [2]: 6.17 Log10CFU/ml
- Bacterial count, 2 hour [2]: 7.6 Log10CFU/ml
- Bacterial count, 4 hour [2]: 7.9 Log10CFU/ml
- Bacterial count, 6 hour [2]: 7.95 Log10CFU/ml
- Bacterial count, 8 hour [2]: 8.1 Log10CFU/ml
- Effect on bacterial count (in words) [2]: not effective to decrease the bacterial count

SMILES: CC1(C)[C@H](C(=O)O)N2C(=O)C[C@H]2S1(=O)=O [Sulbactam, sulbactam]
- Bacterial count, 0 hour [1]: 6.36 Log CFU/ml
- Bacterial count, 2 hour [1]: 6.81 Log CFU/ml
- Bacterial count, 4 hour [1]: 7.4 Log CFU/ml
- Bacterial count, 6 hour [1]: 7.65 Log CFU/ml
- Bacterial count, 8 hour [1]: 7.31 Log CFU/ml
- Effect on bacterial count (in words) [1]: not effective to decrease the bacterial count
- Bacterial count, 0 hour [2]: 6.17 Log10CFU/ml
- Bacterial count, 2 hour [2]: 7.32 Log10CFU/ml
- Bacterial count, 4 hour [2]: 7.56 Log10CFU/ml
- Bacterial count, 6 hour [2]: 7.81 Log10CFU/ml
- Bacterial count, 8 hour [2]: 7.81 Log10CFU/ml
- Effect on bacterial count (in words) [2]: not effective to decrease the bacterial count
